Results: Sander's compilation of Henry's law constants (doi:10.1515/zpch-1906-5519)

Assay: Henry solubility constant Hcp at 298.15 K (mol/(m3 Pa))
Conditions: reference: Rex (1906)

| SMILES | Henry solubility constant Hcp |
| --- | --- |
| S=C=S [carbon disulfide] | 0.00054 |
| CC(C)Br [2-bromopropane] | 0.0009 |
| ClCCl [dichloromethane] | 0.0041 |
| BrCBr [dibromomethane] | 0.011 |
| ClC(Cl)(Cl)Cl [tetrachloromethane] | 0.00035 |
| CCI [iodoethane] | 0.0015 |
| CI [iodomethane] | 0.0019 |
| CCCI [1-iodopropane] | 0.001 |
| CC(C)Cl [2-chloropropane] | 0.00056 |
| CC(C)I [2-iodopropane] | 0.00085 |
| CCBr [bromoethane] | 0.0013 |
| CCCBr [1-bromopropane] | 0.0011 |
